The first experiment relates to HOSE1C. The experiment is described as follows: drug sensitivity score (DSS) from 5-point dose-response viability curve (DSS (area-under-curve based score)); higher = more sensitive (stronger growth inhibition or killing); extreme values may be limits of the assay. The settings on record: exposure time: 72 h; concentration range: 5 concentrations over 10,000-fold range. The essentials: (§1)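 Drug sensitivity scores were calculated in Breeze software for each cell line and drug pair; higher scores indicate more sensitivity. A score of zero indicates no response. The underlying assay used 384-well plates: drugs were placed by an Echo 550 acoustic dispenser at five concentrations spanning a 10,000-fold range, 1,500 ovarian cancer or normal ovarian cells were added per well, and cells were kept 3 days at 37°C, 5% CO2. Viability was then measured with CellTiter-Glo luminescence on a PHERAstar FS.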
The molecule `COc1cc(N2CCC(N3CCN(C)CC3)CC2)ccc1Nc1ncnc(Nc2ccccc2S(=O)(=O)C(C)C)n1` [ASP3026] yielded a drug sensitivity score of 3.4. Still for that read-out and setting: then `CNC(=O)c1ccccc1Nc1cc(Nc2ccc(N3CCOCC3)cc2OC)ncc1C(F)(F)F` [VS-4718], with 3.6. On the same count and under the same terms, the same measure for `CC(=O)c1c(C)c2cnc(Nc3ccc(N4CCNCC4)cn3)nc2n(C2CCCC2)c1=O` [Palbociclib]: 4.5. Same read-out and setting: the same measure for `CS(=O)(=O)N1CCN(Cc2cc3nc(-c4cccc5[nH]ncc45)nc(N4CCOCC4)c3s2)CC1` [Pictilisib]: 6.8; for `CCS(=O)(=O)N1CC(CC#N)(n2cc(-c3ncnc4[nH]ccc34)cn2)C1` [Baricitinib]: 0; for `O=C(Nc1cnn2ccc(N3CCC[C@@H]3c3cc(F)ccc3F)nc12)N1CC[C@H](O)C1` [Larotrectinib]: 0. Consider `CCN1CCN(Cc2ccc(Nc3ncc(F)c(-c4cc(F)c5nc(C)n(C(C)C)c5c4)n3)nc2)CC1` [Abemaciclib], for which the drug sensitivity score came out at 1.6. Still for that read-out and setting: the same measure for `O=C(Nc1ccncc1)C(=O)c1cn(Cc2ccc(Cl)cc2)c2ccccc12` [Indibulin]: 20.1; for `CN(C)C[C@@H]1CCn2cc(c3ccccc32)C2=C(C(=O)NC2=O)c2cn(c3ccccc23)CCO1` [Ruboxistaurin]: 6.3; for `C[C@H](Nc1ncnc2[nH]cnc12)c1cc2ccc(F)cc2nc1-c1ccccn1` [AMG319]: 0. For the molecule `CC(C)(C)c1cc(NC(=O)Nc2ccc(Oc3ccnc4[nH]c(=O)cnc34)cc2F)n(-c2ccccc2)n1`, the drug sensitivity score came to 16.2.

Take `CCn1cc(-c2ccnc3[nH]c(-c4cccc(CN(C)C)c4)cc23)c(-c2ccc(NC(=O)N(C)C)cc2)n1`: the drug sensitivity score is 1.3. On the same count and under the same terms, the same measure for `CCCCCCCCc1ccc(CCC(N)(CO)CO)cc1` [Fingolimod]: 7.4. `C1=N/C2=N/c3ccc(OCCN4CCCC4)c(c3)COC/C=C/COCc3cccc(c3)C(=C1)N2` [Pacritinib] displayed a drug sensitivity score of 8.2. `Nc1ccccc1NC(=O)c1ccc(CNc2nccc(-c3cccnc3)n2)cc1` [Mocetinostat] yielded a drug sensitivity score of 17.8. On the same count and under the same terms, then `N#CC1(c2ccc(NC(=O)c3cccnc3NCc3ccncc3)cc2)CCCC1` [Apatinib], with 0.

The test system of another experiment is JHOS2. The description is as above. Conditions: exposure time: 72 h; concentration range: 5 concentrations over 10,000-fold range. The essentials: as §1
Turning to `O=C(O)c1ccc2c(c1)nc(Nc1cccc(Cl)c1)c1ccncc12` [Silmitasertib], the drug sensitivity score amounted to 4.4. Same read-out and setting: then `CCOc1ccccc1-n1c(C(C)N2CCN(C(=O)COc3ccc(Cl)cc3)CC2)nc2ccccc2c1=O` (configuration not stated) [Erastin], with 0. Still for that read-out and setting: then `CCNCCS(=O)(=O)NC[C@@]1(c2ccccc2)SC(NC(=O)C(C)(C)C)=NN1C(=O)C(C)(C)C` [Litronesib], with 6.1; and `CNC(=O)c1cccc(-c2ccc3c(N4CCOC[C@@H]4C)nc(N4CCOC[C@@H]4C)nc3n2)c1` [Vistusertib], with 7.7.

In turn, `CC(C)(C)c1cc(NC(=O)Nc2ccc(-c3cn4c(n3)sc3cc(OCCN5CCOCC5)ccc34)cc2)no1` [Quizartinib] gave a drug sensitivity score of 0. `N[C@@H]1CCCN(c2c(/C=C3\SC(=O)NC3=O)cccc2-c2ccccc2)C1` [AZD1208]: the drug sensitivity score worked out at 0.3. `CCc1c2c(nc3ccc(O)cc13)-c1cc3c(c(=O)n1C2)COC(=O)[C@]3(O)CC` [SN-38] returned a drug sensitivity score of 25.2.

With `Cn1cc(-c2ccc(F)c(C(F)(F)F)c2)nc1C1CCN(c2ncnc3[nH]ncc23)CC1`, the drug sensitivity score is 0. The same measure, in the same setting: the same measure for `C=CC(=O)Nc1cc(Nc2nccc(-c3cn(C)c4ccccc34)n2)c(OC)cc1N(C)CCN(C)C` [Osimertinib]: 1.6; for `COC(=O)c1ccc2c(c1)[nH]c1ncnc(NCCCN3CCCCC3)c12` [UM729]: 0.

Molecule `Cc1nc(NC(=O)N2CCC[C@H]2C(N)=O)sc1-c1ccnc(C(C)(C)C(F)(F)F)c1` [Alpelisib] gave a drug sensitivity score of 0.6.

In turn, `C[C@H]1CNCCCN1S(=O)(=O)c1cccc2cncc(F)c12` [Ripasudil] yielded a drug sensitivity score of 0.

`CC(C)(C)C[C@@H]1N[C@@H](C(=O)N[C@H]2CC[C@H](O)CC2)[C@H](c2cccc(Cl)c2F)[C@]12C(=O)Nc1cc(Cl)ccc12` had a drug sensitivity score of 0. Same read-out and setting: then `CON(C)C(=O)N1N=C(c2cc(F)ccc2F)S[C@@]1(CCCN)c1ccccc1` [Filanesib], with 7.4; and `CN(C)CC#Cc1ccc(OCCCc2sc(N3CCc4cccc(C(=O)Nc5nc6ccccc6s5)c4C3)nc2C(=O)O)c(F)c1`, with 1.2; and `COc1cc(N2CCC(N3CCN(C)CC3)CC2)ccc1Nc1ncnc(Nc2ccccc2S(=O)(=O)C(C)C)n1` [ASP3026], with 4.1. The molecule `CNC(=O)c1ccccc1Nc1cc(Nc2ccc(N3CCOCC3)cc2OC)ncc1C(F)(F)F` [VS-4718] gave a drug sensitivity score of 5.5. Molecule `CC(=O)c1c(C)c2cnc(Nc3ccc(N4CCNCC4)cn3)nc2n(C2CCCC2)c1=O` [Palbociclib] came in with a drug sensitivity score of 6.3. On the same count and under the same terms, the same measure for `CS(=O)(=O)N1CCN(Cc2cc3nc(-c4cccc5[nH]ncc45)nc(N4CCOCC4)c3s2)CC1` [Pictilisib]: 3.8. On the same count and under the same terms, then `CCS(=O)(=O)N1CC(CC#N)(n2cc(-c3ncnc4[nH]ccc34)cn2)C1` [Baricitinib], with 0; and `O=C(Nc1cnn2ccc(N3CCC[C@@H]3c3cc(F)ccc3F)nc12)N1CC[C@H](O)C1` [Larotrectinib], with 0. Consider `CCN1CCN(Cc2ccc(Nc3ncc(F)c(-c4cc(F)c5nc(C)n(C(C)C)c5c4)n3)nc2)CC1` [Abemaciclib], for which the drug sensitivity score was 5.5. `O=C(Nc1ccncc1)C(=O)c1cn(Cc2ccc(Cl)cc2)c2ccccc12` [Indibulin] returned a drug sensitivity score of 6.8. The same measure, in the same setting: then `CN(C)C[C@@H]1CCn2cc(c3ccccc32)C2=C(C(=O)NC2=O)c2cn(c3ccccc23)CCO1` [Ruboxistaurin], with 8.8. Turning to `C[C@H](Nc1ncnc2[nH]cnc12)c1cc2ccc(F)cc2nc1-c1ccccn1` [AMG319], the drug sensitivity score stood at 0.

Turning to `CC(C)(C)c1cc(NC(=O)Nc2ccc(Oc3ccnc4[nH]c(=O)cnc34)cc2F)n(-c2ccccc2)n1`, the drug sensitivity score turned out to be 0.5.

For `CCn1cc(-c2ccnc3[nH]c(-c4cccc(CN(C)C)c4)cc23)c(-c2ccc(NC(=O)N(C)C)cc2)n1`, the drug sensitivity score is 0. `CCCCCCCCc1ccc(CCC(N)(CO)CO)cc1` [Fingolimod] registered a drug sensitivity score of 5.5. The same measure, in the same setting: the same measure for `C1=N/C2=N/c3ccc(OCCN4CCCC4)c(c3)COC/C=C/COCc3cccc(c3)C(=C1)N2` [Pacritinib]: 7.5; for `Nc1ccccc1NC(=O)c1ccc(CNc2nccc(-c3cccnc3)n2)cc1` [Mocetinostat]: 7.3; for `N#CC1(c2ccc(NC(=O)c3cccnc3NCc3ccncc3)cc2)CCCC1` [Apatinib]: 0.

For the origin of these results see the supplement of paper PMC11616607.
